According to the NIST ThermoML archive (doi:10.1016/j.fluid.2014.02.027):

Conditions: Liquid; for vapor or sublimation pressure: Closed cell (Static) method

FC(F)(F)C(F)(F)C(F)(C(F)(C(F)(F)F)C(F)(F)F)C(F)(C(F)(F)F)C(F)(F)F
Conditions	vapor or sublimation pressure [kPa]
364.58 K	35
368.2 K	40
373.47 K	48
378.29 K	56
388.47 K	77
398.2 K	103
408.48 K	137
418.26 K	176
428.22 K	226
438.31 K	286
448.23 K	357
458.16 K	438
468.16 K	536
478.24 K	649
488.03 K	778
498.02 K	928
503.12 K	1014
507.94 K	1104

FC(F)(F)C(F)(F)C(F)(C(F)(F)C(F)(F)F)C(F)(C(F)(F)F)C(F)(F)F [perfluoro-2-methyl-3-ethylpentane]
Conditions	Critical pressure [kPa]	Critical temperature [K]	vapor or sublimation pressure [kPa]
358.2 K	–	–	59
368.19 K	–	–	82
378.2 K	–	–	111
388.17 K	–	–	146
398.19 K	–	–	191
408.13 K	–	–	245
418.15 K	–	–	312
428.16 K	–	–	391
438.11 K	–	–	484
448.07 K	–	–	593
458.05 K	–	–	720
468 K	–	–	866
473 K	–	–	947
477.98 K	–	–	1034
482.95 K	–	–	1127
487.89 K	–	–	1225
492.92 K	–	–	1332
497.89 K	–	–	1447
502.9 K	–	–	1571
Direct measurement	1685	–	–
Visual observation in an unstirred cell	–	507.12	–
